In ChEMBL document CHEMBL1148418, “BMS-201620: a selective beta 3 agonist” (Bioorg Med Chem Lett, 2004):

How the values were obtained:
[1] = organism: Cavia porcellus; experiment: Intrinsic activity was determined using spontaneously beating guinea pig atria by measuring contraction acceleration relative to isoproterenol response; type: functional
[2] = test system: Monkey; experiment: Compound was tested for in vivo lipolysis in african green monkeys after iv administration; type: functional; details: Cercopithecidae, in Primates

Row | Structure (SMILES) | IA [1] [%] | ED50 [2] [mg/kg]
1 | COc1ccc([C@](C)(NC[C@H](O)c2ccc(O)c(NS(C)(=O)=O)c2)C(=O)Nc2ccc(OCCN(C)C)cc2)cc1 | 92 | 
2 | COc1ccc([C@](C)(NC[C@H](O)c2ccc(O)c(NS(C)(=O)=O)c2)C(=O)Nc2cccc(O)c2)cc1 | 96 | 
3 | COc1ccc([C@](C)(NC[C@H](O)c2ccc(O)c(NS(C)(=O)=O)c2)C(=O)Nc2ccccc2OC)cc1 | 60 | 
4 | COc1ccc([C@](C)(NC[C@H](O)c2ccc(O)c(NS(C)(=O)=O)c2)C(=O)Nc2ccc(OCC(=O)O)cc2)cc1 | 100 | 
5 | COc1ccc([C@](C)(NC[C@H](O)c2ccc(O)c(NS(C)(=O)=O)c2)C(=O)Nc2ccccc2C)cc1 | 83 | 
6 | COc1ccc([C@](C)(NC[C@H](O)c2ccc(O)c(NS(C)(=O)=O)c2)C(=O)Nc2cccc(OCC(=O)O)c2)cc1 | 87 | 
7 | COc1ccc([C@](C)(NC[C@H](O)c2ccc(O)c(NS(C)(=O)=O)c2)C(=O)Nc2cccc(Br)c2)cc1 | 50 | 
8 | COc1ccc([C@](C)(NC[C@H](O)c2ccc(O)c(NS(C)(=O)=O)c2)C(=O)Nc2cccc(OCCN(C)C)c2)cc1 | 85 | 
9 | CCOP(=O)(Cc1ccc(NC(=O)[C@@](C)(NC[C@H](O)c2ccc(O)c(NS(C)(=O)=O)c2)c2ccc(OC)cc2)cc1)OCC | 55 | 0.1
10 | COc1ccc([C@H](NC[C@H](O)c2ccc(O)c(NS(C)(=O)=O)c2)C(=O)Nc2ccccc2)cc1 (stereo in doubt; 16) | 95 | 
11 | COc1ccc([C@](C)(NC[C@H](O)c2ccc(O)c(NS(C)(=O)=O)c2)C(=O)Nc2cc(OC)c(OC)c(OC)c2)cc1 | 66 | 
12 | COc1ccc([C@](C)(NC[C@H](O)c2ccc(O)c(NS(C)(=O)=O)c2)C(=O)Nc2ccc(Cl)cc2)cc1 | 62 | 0.07
13 | COc1ccc([C@](C)(NC[C@H](O)c2ccc(O)c(NS(C)(=O)=O)c2)C(=O)Nc2cccc(C)c2)cc1 | 73 | 
14 | COc1ccc([C@H](NC[C@H](O)c2ccc(O)c(NS(C)(=O)=O)c2)C(=O)Nc2ccc3c(c2)OCO3)cc1 (stereo in doubt; 17) | 93 | 0.08
15 | COc1ccc([C@](C)(NC[C@H](O)c2ccc(O)c(NS(C)(=O)=O)c2)C(=O)Nc2ccc(Cl)c(Cl)c2)cc1 | 8 | 
16 | COc1ccc([C@](C)(NC[C@H](O)c2ccc(O)c(NS(C)(=O)=O)c2)C(=O)Nc2cccc(CN)c2)cc1 | 91 | 
17 | COc1ccc([C@](C)(NC[C@H](O)c2ccc(O)c(NS(C)(=O)=O)c2)C(=O)Nc2ccc(OC)c(OC)c2)cc1 | 89 | 
18 | COc1ccc([C@](C)(NC[C@H](O)c2ccc(O)c(NS(C)(=O)=O)c2)C(=O)Nc2cccc(OC)c2)cc1 | 85 | 
19 | COc1ccc([C@](C)(NC[C@H](O)c2ccc(O)c(NS(C)(=O)=O)c2)C(=O)Nc2cc(Cl)c(Cl)c(Cl)c2)cc1 | 15 | 
20 | COc1ccc([C@](C)(NC[C@H](O)c2ccc(O)c(NS(C)(=O)=O)c2)C(=O)Nc2ccc(C)cc2)cc1 | 90 | 
21 | COc1ccc([C@](C)(NC[C@H](O)c2ccc(O)c(NS(C)(=O)=O)c2)C(=O)Nc2cc(Cl)cc(Cl)c2)cc1 | 13 | 
22 | COc1ccc(NC(=O)[C@@](C)(NC[C@H](O)c2ccc(O)c(NS(C)(=O)=O)c2)c2ccc(OC)cc2)cc1 | 85 | 
23 | COc1ccc([C@](C)(NC[C@H](O)c2ccc(O)c(NS(C)(=O)=O)c2)C(=O)Nc2cccc(Cl)c2)cc1 | 50 | 
24 | COc1ccc([C@](C)(NC[C@H](O)c2ccc(O)c(NS(C)(=O)=O)c2)C(=O)Nc2ccc(O)cc2)cc1 | 90 | 
25 | COc1ccc([C@](C)(NC[C@H](O)c2ccc(O)c(NS(C)(=O)=O)c2)C(=O)Nc2ccc3sc(C)nc3c2)cc1 | 70 | 
26 | COc1ccc([C@](C)(NC[C@H](O)c2ccc(O)c(NS(C)(=O)=O)c2)C(=O)Nc2ccc(Cl)cc2F)cc1 | 43 | 
